Laboratory results reported in PubChem BioAssay (NCI).
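Interpolation was linear, between the two tested concentrations surrounding the appropriate level; five concentrations were tested over 48 hours in 96-well plates. Abbreviation: GI50, concentration required for 50% inhibition of growth. TGI denotes the concentration required for complete inhibition of growth.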

Tests used:
Experiment in all cases: NCI anticancer screen, dose series, 48 h
LOX IMVI melanoma = test system: LOX IMVI melanoma
HOP-92 NSCLC = test system: HOP-92 NSCLC
OVCAR-3 ovarian = test system: OVCAR-3 ovarian
UACC-257 melanoma = test system: UACC-257 melanoma
K-562 leukemia = test system: K-562 leukemia
HT29 colon = test system: HT29 colon
NCI-H23 lung = test system: NCI-H23 lung
BT-549 breast = test system: BT-549 breast
MDA-MB-435 = test system: MDA-MB-435
T-47D breast = test system: T-47D breast

Structure (SMILES)	TGI (LOX IMVI melanoma) [µM]	TGI (HOP-92 NSCLC) [µM]	TGI (OVCAR-3 ovarian) [µM]	TGI (UACC-257 melanoma) [µM]	TGI (K-562 leukemia) [µM]	TGI (HT29 colon) [µM]	TGI (NCI-H23 lung) [µM]	GI50 (LOX IMVI melanoma) [µM]	GI50 (HOP-92 NSCLC) [µM]	GI50 (OVCAR-3 ovarian) [µM]	GI50 (UACC-257 melanoma) [µM]	GI50 (K-562 leukemia) [µM]	GI50 (NCI-H23 lung) [µM]	GI50 (HT29 colon) [µM]	GI50 (BT-549 breast) [µM]	TGI (BT-549 breast) [µM]	GI50 (MDA-MB-435) [µM]	TGI (MDA-MB-435) [µM]	GI50 (T-47D breast) [µM]	TGI (T-47D breast) [µM]
CCOC(=O)N1C/C(=C\c2ccc(N(C)C)cc2)C(=O)/C(=C/c2ccc(N(C)C)cc2)C1	> 100	> 100	> 100	> 100	> 100	> 100	> 100													
Nc1ncnc2c1ncn2C1(CO)OC(CO)C(O)C1O (configuration not stated)	> 100	> 100		> 100		> 100	> 100													
CC[P+](C)(C)CC	> 100	> 100	> 100	> 100	> 100	> 100	> 100													
Cc1ccc(C)c(NC(=O)C(=O)C(C2C(C)CC(=O)C2CC(=O)O)[N+](=O)[O-])c1 (configuration not stated)	> 100	> 100	> 100	> 100	> 100	> 100	> 100													
O=S(=O)([O-])c1ccc(C=Nc2ccccc2)c([O-])c1.O=S(=O)([O-])c1ccc(C=Nc2ccccc2)c([O-])c1.[Co+2]	> 100	> 100	> 100	> 100	> 100		> 100	3.01	> 100	> 100	> 100	2.07	> 100							
CCCOC(=O)C1C(c2ccc(OC)cc2)NC(c2ccc(OC)cc2)C(C(=O)OCCC)S1(=O)=O (configuration not stated)			> 100	> 100	> 100	> 100	> 100			> 100	> 100	> 100	> 100	> 100						
COc1ccc(C)cc1-c1ccc(-c2cc(C)ccc2OC)o1	> 100	> 100	> 100	> 100	> 100	> 100	> 100													
COc1ccc(C(=O)c2no[n+]([O-])c2C(=O)c2ccc(OC)cc2)cc1	2.53	3.96	3.31	10.4	7.17		8.74	1.14	1.72	1.87	3.46	2.36	2.94	2.32	4.84	17.2	6.72	22.9		
COc1ccc(C2=NC(CO)[C@H](c3ccccc3)O2)cc1OC (some centres not stated)	> 100	> 100	> 100	> 100	> 100	> 100														
COC(=O)C(C(=O)C(=O)Nc1nc2ccc(OC)cc2s1)c1cnc2ccccc2n1 (configuration not stated)	> 100	> 100	> 100	> 100	> 100	> 100	> 100													
CC1=C(C(=O)Nc2cc(F)c(F)cc2F)C(c2ccc(N(C)C)cc2)C(C(=O)Nc2cc(F)c(F)cc2F)=C(C)N1	> 100	15.2	49.7	> 82.8	> 100	> 91.3	> 85.1										41.7	> 100	3.64	59.2
O=S(=O)(c1ccccc1)C1(C2(S(=O)(=O)c3ccccc3)CCN=N2)CCN=N1 (configuration not stated)	> 100		> 100	> 100	> 100	> 100	> 100													
NNC(=O)C(=O)N/N=C1\CCCC1C(=O)CCC(=O)Nc1cccc(Cl)c1 (configuration not stated)	> 100	> 100	> 100	> 100		> 100	> 100													
O=C(/C=C/c1cccc(Cl)c1)c1ccccc1	10.8	32.8	15.4	29	18.9		29.6	3.06	16.3	4.09	15.1	2.86	14.8				2	5.43	12.7	32.2
O=C1CC[C@@H]2[C@H]3CCC(=O)c4c3c(c3cccc(O)c3c4O)O[C@@]23C(=O)c2cccc(O)c2C(O)=C13	> 100			> 100	> 100	> 100	> 100	> 100			> 100	> 100	> 100	> 100	> 100	> 100				
Cc1nc2sc(C(=O)Nc3cccc4c3OCCO4)c(N)c2cc1C(C)O (configuration not stated)	> 100	> 100	> 100		> 100	> 100	> 100	5.26	5.52	3.6		1.37	6.67	2.62			0.454	3.54	5.33	> 100
